{
  "source": "patent US20200289439A1",
  "about": "“Process of Manufacturing a Stable, Ready To Use Infusion Bag For An Oxidation Sensitive Formulation” (InnoPharma Licensing, LLC, priority 2013, published 2020)",
  "origin": "cited, not measured here",
  "key": {"[1]": {"details": "intravenous; therapeutic dosing, up to 4,000 mg daily"}, "[2]": {"details": "six adult volunteers"}},
  "data": [
    {"smiles": "CC(=O)Nc1ccc(O)cc1", "note": "[Acetaminophen, N-(4-hydroxyphenyl)acetamide]", "values": [
      {"measurement": "hepatotoxicity", "setting": "[1]", "result": "rarely associated with hepatotoxicity"},
      {"measurement": "mean intravenous Cmax compared to oral route", "setting": "[2]; intravenous vs oral", "result": "nearly two"},
      {"measurement": "mean intravenous Cmax compared to rectal route", "setting": "[2]; intravenous vs rectal", "result": "four fold higher"}
    ]}
  ]
}
